The source of these data is patent US20040019430A1, “Methods and systems for analyzing complex biological systems” (priority 2001, published 2004).

For assay [1], the system named is Arabidopsis thaliana plants. Description: SOA1 phenotypic analysis of herbicide-treated Arabidopsis plants (MIC, Tmic, leaf traits). It counts as in vivo. The settings on record: for Characteristic symptoms (phenotype): herbicide treated Arabidopsis; for Dev. leafCurling / Dev. leafTwisting / Dev. matureLeafAnthocyanins / Dev. matureLeafChlorosis / Dev. matureLeafNecrosis / Dev. newLeafAnthocyanins / Dev. newLeafChlorosis / Dev. newLeafNecrosis / Dev. pointedLeaves: numeric value standardized to mock treated; for Dev. leafWidth: numeric value standardized to the average response for the mock treated tissues; for Symptom Class: three-week-old Arabidopsis plants treated with herbicide, phenotype classes of FIG. 12.

The subject of assay [2] is Arabidopsis thaliana. Description: MOA1 phenotypic profiling of Arabidopsis sprayed with unknown and commercial herbicides. The conditions noted are these: for Hierarchical cluster analysis of the eleven phenotypic characteristics / phenotype: Ward's method. The format is in vivo.
In assay [3] the test system is Arabidopsis thaliana. Nature of the assay: MOA1 biochemical (metabolite) profiling by LC-MS and GC-MS. The settings on record: for Stress-related (commonly regulated) metabolites: MOA1, 20 min and 1 hr after spraying.
For assay [4], the system named is Saccharomyces cerevisiae wild type strain BY4743. Description: AF1 combined gene expression and metabolite data mapped to KEGG reactions and pathways. The format is cell-based. The conditions noted are these: yeast AF1. From the text: In AF1, two different technologies were utilized: gene expression analysis (for examination of mRNA expression) and metabolite analysis. […] As noted previously, existing metabolic databases may be helpful in practicing the methods and systems of the present invention, but many databases include limitations that make their use in data analysis and pathway mapping less than straightforward. […] This caveat to KEGG makes it difficult to pinpoint the correct pathway when attempting to link a gene to a specific pathway. […] The pathway score indicates how meaningful the mapping is, or how likely it is to be correctly indicative of the pathway involved in the perturbation under examination. The method provides a pathway score based on perturbation levels of genes and/or compounds and the information content of each gene and/or compound in the pathway, i.e., a pathway score indicates the extent to which other pathways are mapped to a gene/compound. For example, imagine that two genes are perturbed in a particular experiment. One gene maps to only one pathway, giving a high degree of probability that the perturbed pathway is the one identified in the mapping. The second gene maps to three pathways. In the later example, there is only one-third the probability that the pathway identified in the mapping is the one perturbed. The present invention provides a method for calculating the pathway scores, so that more weight is given to a score of a gene or compound that maps to only one pathway than to a score of a gene or compound that maps to multiple pathways. […] Where n=the total number of genes in the pathway; ipath—count=the number of pathways containing a gene; and j=the number of genes in the pathway that are perturbed. Another factor to be considered when weighting a pathway score is the degree of perturbation. Degree of perturbation can be calculated, for example, based on a number of standard deviations from a norm, and included in an equation such as the one shown above, so that not only the number of pathways is taken into account, but also accounts for the amount of gene transcript or compound present as compared to a control. Compounds were also linked to pathways using the KEGG database. KEGG links 676 compounds measured in AF1 to a total of 92 pathways. Of the 676 compounds under consideration, 77 were detected in the AF1 samples. […] The multiple mapping feature of KEGG makes it difficult to pinpoint the correct pathway when trying to link a compound to a specific pathway. […] A pathway score calculation is applied to the compounds to account for both information content (number of pathways a compound maps to) and perturbation level. The data were then combined to determine the number of reactions showing an enzyme and at least one compound perturbed, and to determine the number of pathways having at least one enzyme and one perturbed compound perturbed. The results of the analysis are represented in Tables 16 and 17, and were difficult to interpret, illustrating that the ability to draw conclusions from compound mapping to pathways is limited when absent additional data.

The subject of another assay is Magnaporthe grisea. The format is cell-based.
The subject of assay [5] is Saccharomyces cerevisiae wild type strain BY4743. Nature of the assay: AF1 metabolite analysis (GC-MS, LC-MS) of yeast cells treated with antifungal drugs. It counts as cell-based. Also noted: Fold Change: scale not given here.
[6] abbreviates: 250 μg/ml (partially inhibitory).

Each structure is given as a SMILES string.

Turning to `Nc1nc[nH]n1` [Amitrole], in assay [1], the “Dev. tMic” value was 2; the “Characteristic symptoms (phenotype)” value was “leaf bleaching and leaf enlargement”; the “Dev. leafCurling” value was −1; the “Dev. leafTwisting” value is listed as 0. In addition, in assay [1], the “Dev. matureLeafAnthocyanins” value came to 0, the “Dev. matureLeafChlorosis” value was 3, the “Dev. matureLeafNecrosis” value came out at 0 and the “Dev. newLeafAnthocyanins” value stood at 0. Moreover, in assay [1], the “Dev. newLeafChlorosis” value came to 4, the “Dev. newLeafNecrosis” value is listed as 0, the “Dev. pointedLeaves” value was determined as 0 and the “Dev. leafWidth” value was determined as 2. Also, in the assay with Arabidopsis thaliana [2], the “Hierarchical cluster analysis of the eleven phenotypic characteristics / phenotype” value is “exhibited chlorosis and not true bleaching”.
With `CCSC(=O)N(CC(C)C)CC(C)C` [Butylate], the “Stress-related (commonly regulated) metabolites” value (“Stress-related” below) in the assay on Arabidopsis thaliana [3] is “neither butylate nor chlorpropham treatment resulted in many changes”. The Herbicidal phenotype result with Arabidopsis thaliana [2] is on record as “neither showed a strong herbicidal phenotype”.
For `CC(C)OC(=O)Nc1cccc(Cl)c1` [Chloropropham], in the assay with Arabidopsis thaliana [3], the “Stress-related” value was “neither butylate nor chlorpropham treatment resulted in many changes”. The Herbicidal phenotype entry with Arabidopsis thaliana [2] is “neither showed a strong herbicidal phenotype”.
Regarding `OC(Cn1cncn1)(Cn1cncn1)c1ccc(F)cc1F` [Fluconazole], the “# Reactions (title: Number Of Pathways Having at Least One Enzyme and One Compound Perturbed)” value (“# Reactions” below) in assay [4] came to 15.
With `CP(=O)(O)CCC(N)C(=O)O` (stereo not drawn) [Glufosinate], the “Nitrogen sources M. grisea can utilize in presence of compound” value in the assay with Magnaporthe grisea is “only able to utilize glutamine and glutamate as nitrogen sources”. Also, in assay [1], the “Dev. tMic” value was 1; the “Characteristic symptoms (phenotype)” value is “Chlorosis and leaf curling”; the “Dev. leafCurling” value was 2; the “Dev. leafTwisting” value stood at 1. Further, in assay [1], the “Dev. matureLeafAnthocyanins” value was 0, the “Dev. matureLeafChlorosis” value is on record as 3, the “Dev. matureLeafNecrosis” value amounted to 0 and the “Dev. newLeafAnthocyanins” value is recorded as 0. Also, in assay [1], the “Dev. newLeafChlorosis” value came out at 3, the “Dev. newLeafNecrosis” value worked out at 0, the “Dev. pointedLeaves” value is on record as 1 and the “Dev. leafWidth” value is −2. For the same compound, the “Symptom Class” value in assay [1] is 3. Besides, the “Stress-related” value with Arabidopsis thaliana [3] is “Only a few, if any, stress-related metabolites were observed”. Further, the “Hierarchical cluster analysis of the eleven phenotypic characteristics / phenotype” value in the assay on Arabidopsis thaliana [2] is recorded as “clustered with amitrole”.
`O=C(O)CNCP(=O)(O)O` [Glyphosate]: in the assay with Magnaporthe grisea (setting [6]), the “Growth of M. grisea with ammonium or glutamine provided” value is listed as “Little growth defect” and the “Growth of M. grisea with nitrate, nitrite, or glutamate as the sole nitrogen source” value is recorded as “inhibited growth”. In assay [1], the “Dev. tMic” value turned out to be 2, the “Characteristic symptoms (phenotype)” value was “anthocyanin accumulation in the older leaves accompanied by chlorosis of the newly emerging leaves”, the “Dev. leafCurling” value worked out at 0 and the “Dev. leafTwisting” value stood at 0. In addition, in assay [1], the “Dev. matureLeafAnthocyanins” value is listed as 3, the “Dev. matureLeafChlorosis” value came out at 1, the “Dev. matureLeafNecrosis” value was determined as 3 and the “Dev. newLeafAnthocyanins” value came to 1. Also, in assay [1], the “Dev. newLeafChlorosis” value was found to be 2, the “Dev. newLeafNecrosis” value turned out to be 0, the “Dev. pointedLeaves” value is 1 and the “Dev. leafWidth” value stood at 0. For the same compound, the “Symptom Class” value in assay [1] was determined as 4. For the same compound, the “Tyrosine level (metabolite downstream from the SOA)” value with Arabidopsis thaliana [3] (after one hour) is listed as “decreased relative to the control after one hour”. For the same compound, the “Hierarchical cluster analysis of the eleven phenotypic characteristics / phenotype” value in the assay on Arabidopsis thaliana [2] is “clustered with amitrole”.
For the compound `CC(C)C1(C)N=C(c2ncccc2C(=O)O)NC1=O` (stereo not drawn) [Imazapyr], in assay [1], the “Dev. tMic” value is recorded as 2, the “Characteristic symptoms (phenotype)” value is “anthocyanin accumulation in the older leaves accompanied by chlorosis of the newly emerging leaves”, the “Dev. leafCurling” value worked out at 0 and the “Dev. leafTwisting” value is recorded as 0. Also, in assay [1], the “Dev. matureLeafAnthocyanins” value is 2, the “Dev. matureLeafChlorosis” value came to 0, the “Dev. matureLeafNecrosis” value is 0 and the “Dev. newLeafAnthocyanins” value amounted to 0. In addition, in assay [1], the “Dev. newLeafChlorosis” value was 2, the “Dev. newLeafNecrosis” value came out at 0, the “Dev. pointedLeaves” value was 0 and the “Dev. leafWidth” value turned out to be 0. In the assay with Arabidopsis thaliana [3], the “Stress-related” value is “Only a few, if any, stress-related metabolites were observed”.
For the compound `CC(=O)N1CCN(c2ccc(OCC3COC(Cn4ccnc4)(c4ccc(Cl)cc4Cl)O3)cc2)CC1` (stereo not drawn) [Ketoconazole], the “# Reactions” value in assay [4] came to 24. Besides, the “# Compounds perturbed by treatment” value in assay [5] (P < 0.1, yeast, 2x MIC, two hours) amounted to 15.
Take `CNc1cnn(-c2cccc(C(F)(F)F)c2)c(=O)c1Cl` [Norfluazon, norflurazon]: the “Stress-related” value in the assay with Arabidopsis thaliana [3] is given as “Only a few, if any, stress-related metabolites were observed”.
As to `CC[C@@H]([C@H](C)O)n1ncn(-c2ccc(N3CCN(c4ccc(OC[C@@H]5CO[C@@](Cn6cncn6)(c6ccc(F)cc6F)C5)cc4)CC3)cc2)c1=O` [Posaconazole], the “# Reactions” value in assay [4] was 3. For the same compound, the “Fold Change” value is on record as 0 in assay [5] (metabolite NacetylD-glucosamine, platform nLC); 0 in assay [5] (metabolite NacetylD-glucosamine, platform pLC); 0 in assay [5] (metabolite NacetylL-glutamate, platform pLC); 0 in assay [5] (metabolite NacetylL-ornithine, platform nLC); 0 in assay [5] (metabolite niacinamide, platform pLC); 0 in assay [5] (metabolite nopaline, platform pLC). Further, the “Fold Change” value in assay [5] (metabolite ornithine3, platform GC) is recorded as 0.041; in assay [5] (metabolite orotic acid, platform nLC) it was 0; in assay [5] (metabolite phenylpyruvic acid, platform nLC), 0; in assay [5] (metabolite phosphoenolpyruvate, platform nLC) it was 0; in assay [5] (metabolite phosphoenolpyruvate, platform pLC), 0; in assay [5] (metabolite pinitol, platform nLC) it was 0. Further, the “Fold Change” value in assay [5] (metabolite porphobilinogen, platform nLC) was found to be 0; in assay [5] (metabolite progesterone, platform pLC), 0; in assay [5] (metabolite retinoic acid, platform nLC), 0; in assay [5] (metabolite riboflavin, platform pLC), 0; in assay [5] (metabolite salicylic/HObenzoic, platform nLC) it was 0; in assay [5] (metabolite shikimic acid, platform nLC) it was 0. For the same compound, the “Fold Change” value stood at 0 in assay [5] (metabolite sinapinic acid, platform nLC); 0 in assay [5] (metabolite sugar-phosphate, platform pLC); 0 in assay [5] (metabolite thiamine, platform pLC); 0 in assay [5] (metabolite thymine, platform nLC); 0 in assay [5] (metabolite thymine, platform pLC); 0 in assay [5] (metabolite tryptophan, platform pLC). Also, the “Fold Change” value was found to be 0 in assay [5] (metabolite uric acid, platform pLC); 0 in assay [5] (metabolite urocanic acid, platform nLC); 0 in assay [5] (metabolite urocanic acid, platform pLC); 0 in assay [5] (metabolite xanthosine (diH2O), platform pLC); 0 in assay [5] (metabolite xanthosine-DiH2O, platform nLC); 0 in assay [5] (metabolite zeatin, platform nLC). In addition, the “Fold Change” value in assay [5] (metabolite zeatin, platform pLC) is 0.
